Experimental data reported in US9682966B2, “Kappa opioid ligands” (The Scripps Research Institute, priority 2012, dated 2017).

Biological target: kappa opioid receptor (OPRK1) (Homo sapiens (Human), UniProt P41145)
Experiment: OPRK1 antagonist assay (b-arrestin-2-TEV / b-lactamase reporter, EC80 U-50488 challenge)
Assay type: cell-based
Details: OPRK1 antagonist assay vs EC80 U-50488

Chain of kappa opioid receptor (OPRK1) (P41145 whole entry): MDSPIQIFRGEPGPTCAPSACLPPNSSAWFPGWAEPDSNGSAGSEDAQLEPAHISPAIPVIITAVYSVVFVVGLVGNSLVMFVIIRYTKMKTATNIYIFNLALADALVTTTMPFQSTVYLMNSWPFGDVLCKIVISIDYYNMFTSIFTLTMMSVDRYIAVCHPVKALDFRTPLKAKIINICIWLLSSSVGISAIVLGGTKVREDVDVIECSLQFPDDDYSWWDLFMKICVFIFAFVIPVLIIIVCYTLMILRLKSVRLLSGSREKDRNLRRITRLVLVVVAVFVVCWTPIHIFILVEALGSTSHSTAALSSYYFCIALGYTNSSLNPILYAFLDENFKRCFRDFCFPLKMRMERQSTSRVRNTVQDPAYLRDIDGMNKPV

| Structure (SMILES) | IC50 [nM] |
| --- | --- |
| CC(=O)c1cc(-c2ccccc2)cnc1N1CC[C@@H](NC2CCCCC2)[C@H](O)C1 [C65] | > 10000 |
| Cc1cnc(N2CCC(NC3CCOCC3)CC2)c(-c2nc(C3CC3)no2)c1 [compound 396] | 2260 |
| Cc1ccc2nc(N3CCC(NC4CCCC4)CC3)c(-c3nc(C)no3)cc2c1 [compound 369] | 2 |
| COC(=O)c1cc(-c2ccccc2)cnc1N1CCC(NC2CCCCC2)CC1 [C13] | > 10000 |
| Cc1ccc2nc(N3CCC(NCC(C)C)CC3)c(-c3ccc(C)nn3)cc2c1 [compound 442] | 324 |
| Cc1cnc(N2CCC(NCC(C)C)CC2)c(-c2nc(C3CC3)no2)c1 [compound 397] | 1280 |
| Cc1ccc2nc(NCCCNC3CCCCC3)c(-c3nc(C)no3)cc2c1 [C86] | > 10000 |
| CO[C@H]1CN(c2ncc(C)cc2-c2noc(C)n2)CC[C@H]1NC1CCCCC1 [compound 395] | 49 |
